Assay results reported in patent publication US11034725B2, “Compositions and methods for treating cardiovascular disease” (Genentech, Inc., priority 2016, dated 2021).
Entries after “also recorded” stand apart in the source; their conditions may differ. Like-named read-outs stand apart in the source and are kept apart here. Square brackets hold non-standard residues; d marks the D form. Peptide text beside a SMILES is read from it. hArg = N=C(N)NCCCC[C@H](N)C(=O)O

B1: PCSK9-AAA: triple mutant PCSK9-R167A:R215A:R218A (protein, UniProt Q8NBP7 153-692, looked up, variant R167A R215A R218A)
Proprotein convertase …: SIPWNLERITPPRYAADEYQPPDGGSLVEVYLLDTSIQSDHREIEGRVMVTDFENVPEEDGTAFHAQASKCDSHGTHLAGVVSGRDAGVAKGASMRSLRVLNCQGKGTVSGTLIGLEFIRKSQLVQPVGPLVVLLPLAGGYSRVLNAACQRLARAGVVLVTAAGNFRDDACLYSPASAPEVITVGATNAQDQPVTLGTLGTNFGRCVDLFAPGEDIIGASSDCSTCFVSQSGTSQAAAHVAGIAAMMLSAEPELTLAELRQRLIHFSAKDVINEAWFPEDQRVLTPNLVAALPPSTHGAGWQLFCRTVWSAHSGPTRMATAVARCAPDEELLSCSSFSRSGKRRGERMEAQGGKLVCRAHNAFGGEGVYAIARCCLLPQANCSVHTAPPAEASMGTRVHCHQQGHVLTGCSSHWEVEDLGTHKPPVLRPRGQPNQCVGHREASIHASCCHAPGLECKVKEHGIPAPQEQVTVACEEGWTLTGCSALPGTSHVLGAYAVDNTCVVRSRDVSTTGSTSEGAVTAVAICCRSRHLAQASQELQ

Tests used:
PCSK9 [1] = target: T1, PCSK9 (Homo sapiens, UniProt Q8NBP7); experiment: PCSK9/EGF(A) TR-FRET binding assay
T1 sequence (Q8NBP7 153-692): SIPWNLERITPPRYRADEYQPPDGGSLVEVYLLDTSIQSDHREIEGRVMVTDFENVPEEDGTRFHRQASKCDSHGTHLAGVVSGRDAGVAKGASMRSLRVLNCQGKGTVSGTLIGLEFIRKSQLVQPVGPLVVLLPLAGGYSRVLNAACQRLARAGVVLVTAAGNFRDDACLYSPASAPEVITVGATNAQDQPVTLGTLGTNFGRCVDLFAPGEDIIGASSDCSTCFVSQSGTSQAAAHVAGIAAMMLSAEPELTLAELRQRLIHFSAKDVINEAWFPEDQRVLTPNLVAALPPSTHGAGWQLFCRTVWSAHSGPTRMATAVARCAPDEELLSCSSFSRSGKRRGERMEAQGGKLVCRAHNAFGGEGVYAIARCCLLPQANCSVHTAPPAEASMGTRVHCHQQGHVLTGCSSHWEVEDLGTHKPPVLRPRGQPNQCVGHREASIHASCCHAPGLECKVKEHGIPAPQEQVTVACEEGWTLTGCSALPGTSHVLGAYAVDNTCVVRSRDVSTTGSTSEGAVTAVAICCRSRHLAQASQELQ
T1 sequence (Q8NBP7 31-152 partner limits assumed): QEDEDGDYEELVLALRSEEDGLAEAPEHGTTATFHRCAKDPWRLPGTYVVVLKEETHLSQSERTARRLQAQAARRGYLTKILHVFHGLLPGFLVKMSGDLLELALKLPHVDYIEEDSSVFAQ

PCSK9Δhelix = target: T2, PCSK9Δhelix (Homo sapiens, UniProt Q8NBP7); experiment: PCSK9Δhelix/Ab20 TR-FRET binding assay
T2 construct: Human PCSK9 construct M1-Q692 with an engineered TEV site (residue deletion Y166, R167); made in house; host or cells: CHO
T2 sequence (Q8NBP7 with tags, fused parts or gaps limits assumed): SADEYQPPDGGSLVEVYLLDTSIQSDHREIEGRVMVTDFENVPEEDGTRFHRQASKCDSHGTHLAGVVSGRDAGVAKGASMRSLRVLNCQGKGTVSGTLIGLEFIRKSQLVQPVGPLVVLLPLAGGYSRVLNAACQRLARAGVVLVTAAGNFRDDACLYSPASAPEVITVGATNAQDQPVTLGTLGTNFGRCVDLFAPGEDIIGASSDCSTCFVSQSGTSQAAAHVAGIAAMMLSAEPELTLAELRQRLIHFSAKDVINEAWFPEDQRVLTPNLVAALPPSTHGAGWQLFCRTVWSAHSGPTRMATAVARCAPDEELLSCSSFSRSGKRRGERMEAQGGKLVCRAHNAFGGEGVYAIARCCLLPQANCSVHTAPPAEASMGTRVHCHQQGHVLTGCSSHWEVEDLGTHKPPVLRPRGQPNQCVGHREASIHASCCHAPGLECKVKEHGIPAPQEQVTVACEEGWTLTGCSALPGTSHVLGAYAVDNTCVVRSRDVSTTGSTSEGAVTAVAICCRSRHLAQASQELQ
T2 sequence (Q8NBP7 31-152 partner limits assumed): as the sequence (Q8NBP7 31-152 partner limits assumed) above
Method: (§1) The former was based on a TF-FRET assay to measure the association of the EGF(A) domain of the LDLR to PCSK9 (“PCSK9/EGF(A) binding assay”) whilst the latter was based on a TR-FRET assay to measure binding of Ab20 to PCSK9Δhelix (“PCSK9Δhelix/Ab20 binding assay”).
(§2) The ability of compounds to inhibit binding to PCSK9 was evaluated with a panel of time-resolved fluorescence resonance energy transfer (TR-FRET) binding assays. […] The PCSK9Δhelix/Ab20 binding assay evaluated the ability of compounds to compete with Ab20 for binding to the N-terminal groove region in a His-tagged, PCSK9Δhelix construct. […] Signal generation in the PCSK9 binding assays was dependent upon the binding interaction to bring into close proximity the His-tag on the PCSK9 and the Fc-tag on the ligand. Anti-His-APC was bound to the His-tag, and anti-Fc-europium was bound to the Fc-tag. When these two antibodies were in close proximity and were irradiated with light at 340 nm, the europium was excited and emitted energy at 615 nm. This energy was taken up by the APC and was emitted as light at 665 nm. Compounds that competed with the ligand reduced the energy transfer and thus the emission at 665 nm. In the His-EGFA-Fc molecule in the counterscreen, the two tags were always in close proximity, thus any reduction in emission at 665 nm was due to interference with the detection system.
(§3) Compounds were solubilized and dilutions were prepared in DMSO. […] The plate was centrifuged to mix the well contents and allowed to incubate for 30 min. […] The TR-FRET signal was read on a ViewLux reader (PerkinElmer) with excitation at 340 nm and emission at 615 and 665 nm with a 50-μs time delay between excitation and measurement of emission. The TR-FRET ratio was calculated as the fluorescence emission at 665 nm divided by the fluorescence emission at 615 nm. The normalized TR-FRET ratios were plotted as a function of the compound concentrations, and the IC50 values were determined using a 4-parameter logistic regression.

His-EGF(A)-Fc = His-EGF(A)-Fc TR-FRET counterscreen; conditions: for IC50: TR-FRET counterscreen, Table 8E, additional compounds
Method: as §1, §2, §3

PCSK9 [2] = target: T1, PCSK9; experiment: PCSK9/LDLR-Fc TR-FRET assay (LDLR assay); assay type: binding; conditions: for IC50: Table 11, LDLR-Fc, average ±S.D. of three experiments
Method: In black 1536-well assay plates (MaKO, Aurora® Microplates, Whitefish, Mont.), 40 nL of peptide in DMSO were preincubated with 2 μL His-tagged PCSK9 plus anti-His-allophycocyanin in assay buffer (50 mM Tris-HCl, pH 7.5, 150 mM NaCl, 2 mM CaCl2, 0.01% Tween®-20, 0.1% bovine gamma globulins, and protease inhibitor cocktail) for 30 min. Then 2 μL of Fc-tagged ligand and anti-Fc-europium in assay buffer were added and allowed to incubate for 2 h. The PCSK9 and ligand conditions for each assay are as follows: 10 nM C-terminal (His)8-tagged PCSK9 (“(His)8” disclosed as SEQ ID NO: 304) and 12 nM EGF(A)-Fc for the EGF(A) assay, 10 nM C-terminal (His)8-tagged PCSK9 (“(His)8” disclosed as SEQ ID NO: 304) and 2.5 nM LDLR-Fc for the LDLR assay, 1.25 nM C-terminal (His)8-tagged PCSK9Δhelix (“(His)8” disclosed as SEQ ID NO: 304) and 0.75 nM Ab20 for the Ab20 assay, and 2 nM His-EGF(A)-Fc alone for the counterscreen. In all assays, anti-His-allophycocyanin and anti-Fc-europium were used at 20 nM and 2 nM, respectively. Fluorescence was measured with excitation at 340 nm and emission at 671 nm and 618 nm. The TR-FRET ratio was calculated as fluorescence at 671 nm/fluorescence at 618 nm. The ratios were normalized to controls and plotted against peptide concentration to determine IC50 values (Screener Analyzer, Genedata, Basel, CH). The peptides were evaluated in three separate experiments per assay with 10-point titrations and n=2 per concentration. The values presented are the average ±S.D. of three independent experiments.

PCSK9 [3] = target: T1, PCSK9; experiment: SPR affinity measurements of peptide binding (Example 8); conditions: Example 8, with standard error; read-out: KD, binding affinity to PCSK9 in SPR experiments
PCSK9 [4] = target: T1, PCSK9; experiment: Cell surface LDLR assay with HepG2 cells; assay type: cell-based
Method: HepG2 cells (ATCC; Manassas, Va.) were seeded into 48 well plates (Corning; Corning, N.Y.) at 1×10^5 cells per well in high glucose medium (DMEM, Gibco; Carlsbad, Calif.) containing 2 mM glutamine (Sigma), penicillin/streptomycin (Gibco) and 10% FBS (Sigma; St. Louis, Mo.) and incubated overnight. Then the medium was changed to DMEM containing 10% lipoprotein deficient serum (LPDS, Sigma). After 24 h, 15 μg/mL PCSK9 was incubated with peptides or Fab33 for 30 min, added to the cells and incubated at 37° C. for 4 h. Cells were rinsed with PBS and detached using Cell Dissociation Buffer in PBS (Gibco). After centrifugation, the resuspended cells were incubated with 1:20 anti LDLR antibody (Progen Biotechnik; Heidelberg, Germany) on ice for 10 min. The samples were then washed with PBS and incubated with 1:200 diluted goat anti mouse IgG (H+L) Alexa Fluor 488 (Invitrogen; Carlsbad, Calif.) on ice for 5 min. After two PBS washes, cells were re suspended in PBS containing 2.5 μg/mL of propidium iodide and analyzed on a dual laser flow cytometer (FACScan, Becton Dickinson; Franklin Lakes, N.J.). Relative fluorescence units (RFUs) were used to quantify LDLR expression levels on the HepG2 cell surface. Cell surface LDLR levels were expressed as percent of LDLR levels measured in the absence of PCSK9 (=control).
The effect of Compound 229 on PCSK9-mediated LDL receptor degradation was measured in a HepG2 cell assay as previously described (Zhang et al., J Biol Chem. 2014 Jan. 10; 289(2):942-55). Peptides at various concentrations were preincubated with 15 μg/mL PCSK9 in the presence of 0.5% DMSO for 30 min prior to the addition to cells. After a 4 h incubation, the cells were processed for measurements of LDL receptor surface levels by flow cytometry as described (Zhang et al., J Biol Chem. 2014 Jan. 10; 289(2):942-55) (FIG. 37).

LDLR ectodomain = target: T3, LDLR ectodomain (Homo sapiens, UniProt P01130); experiment: Biolayer interferometry binding of PCSK9 mutants to LDLR ectodomain
T3 construct: purchased R & D Systems
T3 sequence (P01130 22-788 limits assumed): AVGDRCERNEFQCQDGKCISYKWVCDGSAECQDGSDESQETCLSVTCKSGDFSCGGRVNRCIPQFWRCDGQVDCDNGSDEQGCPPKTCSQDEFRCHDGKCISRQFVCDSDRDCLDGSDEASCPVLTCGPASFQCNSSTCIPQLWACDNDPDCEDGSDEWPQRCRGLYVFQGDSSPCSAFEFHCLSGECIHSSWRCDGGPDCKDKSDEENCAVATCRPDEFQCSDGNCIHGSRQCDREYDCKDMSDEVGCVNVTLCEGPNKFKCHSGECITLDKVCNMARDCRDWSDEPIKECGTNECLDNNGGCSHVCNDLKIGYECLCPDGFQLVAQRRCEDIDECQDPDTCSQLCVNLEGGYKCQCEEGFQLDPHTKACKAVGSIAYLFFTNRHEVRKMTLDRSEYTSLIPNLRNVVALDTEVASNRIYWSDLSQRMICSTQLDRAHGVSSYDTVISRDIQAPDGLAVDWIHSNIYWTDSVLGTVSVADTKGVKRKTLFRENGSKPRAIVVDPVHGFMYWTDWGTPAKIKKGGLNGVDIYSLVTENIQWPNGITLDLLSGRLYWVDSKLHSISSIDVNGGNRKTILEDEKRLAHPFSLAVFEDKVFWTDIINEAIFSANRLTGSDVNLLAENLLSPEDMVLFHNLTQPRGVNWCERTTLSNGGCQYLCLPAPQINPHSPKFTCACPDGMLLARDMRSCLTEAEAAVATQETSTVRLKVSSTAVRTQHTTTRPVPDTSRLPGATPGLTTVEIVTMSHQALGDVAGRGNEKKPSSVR
Description: In further experiments the previously described PCSK9 mutant PCSK9-R215A:R218A (=PCSK9-AA) (Lipari et al. J Biol Chem. 2012 Dec. 21; 287(52):43482-91), in which the “furin cleavage loop” residues had been changed to Alanine, was used in order to prevent protease cleavage at the susceptible residues R215 and R218. […] Therefore, to direct the FXIa cleavage specifically to the P′ alpha helix residue R160 the triple mutant PCSK9-R167A:R215A:R218A (=PCSK9-AAA) was produced. The binding affinities of PCSK9-AAA and PCSK9-AA to the LDLR ectodomain (R & D Systems) were determined by biolayer interferometry as described (Lipari et al. J Biol Chem. 2012 Dec. 21; 287(52):43482-91).

contaminating protease = experiment: PCSK9 cleavage under crystallization conditions and inhibition by serine protease inhibitors; assay type: biochemical; conditions: serpins 150 μM, Aprotinin 1.5 mM, 9 days, room temperature
Method: After SDS-PAGE of the samples, the 60 kDa band comprising the PCSK9 catalytic domain and Cys-rich domain (CRD) was analyzed by N-terminal sequencing and the results reported in Table 2.
Samples were analyzed by SDS-PAGE and transferred to a nitrocellulose membrane using iBlot (Invitrogen). Proteins were then probed with a polyclonal rabbit antibody (1:3000) raised against the PCSK9 N-terminal peptide (^153[…]^168 (SEQ ID NO: 5)), followed with HRP-conjugated donkey anti-rabbit antibody (1:5000, GE Healthcare) using iBind (Invitrogen). PCSK9 signals were detected by ECL (GE Healthcare) and visualized by autoradiography. The polyclonal rabbit antibody against the PCSK9 N-terminal peptide ^153[…]^168 (SEQ ID NO: 5) was generated by immunizing rabbits with the synthesized peptide […] (SEQ ID NO: 285), which contained an extra Cys residue at the N-terminus for conjugation to KLH. The polyclonal antibody IgG was purified from rabbit serum using affinity chromatography with resin-immobilized peptide […] (SEQ ID NO: 285) (YenZym Antibodies, LLC, San Francisco, Calif.).

[5] = TR-FRET, Table 8E, additional compounds, read-out: PCSK9/EGF(A) IC50
[6] = Table 11, average ±S.D. of three experiments, read-out: EGF(A) IC50
[7] = TR-FRET, Table 8E, additional compounds, read-out: PCSK9Δhelix/Ab20 IC50
[8] = Table 11, average ±S.D. of three experiments, read-out: Ab20 IC50

Molecule | inhibition in the PCSK9/EGF(A) binding assay (PCSK9 [1]) | IC50 (PCSK9 [1]; [5]) [µM] | IC50 (PCSK9 [1]; [6]) [µM] | IC50 (PCSK9Δhelix; [7]) [µM] | IC50 (PCSK9Δhelix; [8]) [µM] | IC50 (His-EGF(A)-Fc) [µM] | inhibition of LDLR-Fc binding to PCSK9 (PCSK9 [2]) | IC50 (PCSK9 [2]) [µM] | Kd (PCSK9 [3]) [µM] | Kd (LDLR ectodomain) [µM] | inhibition of P′ helix cleavage of the Fab33:PCSK9 complex by contaminating protease (contaminating protease) | other results
CC[C@H](C)[C@H](NC(=O)[C@H](CCCCNC(=N)N)NC(=O)[C@@H](NC(=O)[C@H](CC(C)C)NC(=O)[C@H](CC(N)=O)NC(=O)[C@H](Cc1c[nH]c2ccccc12)NC(=O)CNC(=O)[C@@H]1CCCN1C(=O)[C@H](Cc1ccccc1)NC(=O)[C@H](C)NC(=O)[C@H](Cc1ccccc1)NC(=O)[C@H](CO)NC(C)=O)C(C)C)C(=O)NCC(=O)N[C@@H](CC(C)C)C(=O)N[C@@H](CC(C)C)C(=O)N[C@@H](CCCNC(=N)N)C(N)=O [Compound 228] (Ac-SFAFPGWNLV[hArg]IGLLR-NH2) | inhibited | 1.3 | 13.2 ± 0.8 | 13 | 1.37 ± 0.12 | ≥ 50 | inhibited | 30.4 ± 1.1 | 2.8 ± 0.05 | – | – | –
CC[C@H](C)[C@H](NC(=O)[C@H](CCCCNC(=N)N)NC(=O)[C@@H](NC(=O)[C@H](CC(C)C)NC(=O)[C@H](CC(N)=O)NC(=O)[C@H](Cc1c[nH]c2ccccc12)NC(=O)CNC(=O)[C@@H]1CCCN1C(=O)[C@H](Cc1ccccc1)NC(=O)[C@H](CO)NC(=O)[C@H](CCC(=O)O)NC(=O)[C@H](CCSC)NC(C)=O)C(C)C)C(=O)NCC(=O)N[C@@H](CC(C)C)C(=O)N[C@@H](CC(C)C)C(=O)N[C@@H](CCCNC(=N)N)C(N)=O [Compound 229] (Ac-MESFPGWNLV[hArg]IGLLR-NH2) | inhibited; also recorded: inhibition | 0.81 | 8.3 ± 0.1 | 8.1 | 0.84 ± 0.08 | ≥ 50 | inhibited; also recorded: inhibition | 25 ± 0.8 | 0.94 ± 0.01 | – | – | inhibition in the PCSK9Δhelix/Ab20 binding assay (PCSK9Δhelix): inhibition; improvement of affinity to PCSK9Δhelix versus Compound 192 (PCSK9Δhelix; Table 11): more than 6 fold; response in the His-EGF(A)-Fc counterscreen (His-EGF(A)-Fc): without interference; inhibition of PCSK9-mediated LDLR degradation in HepG2 cells (PCSK9 [4]): concentration-dependent manner; also recorded: concentration-dependent inhibition; surface LDLR levels restored (PCSK9 [4]; HepG2 cells, maximal restoration, percent of control without PCSK9): ≤ 70%
PCSK9-AA: PCSK9 mutant in which the furin cleavage loop residues R215 and R218 had been changed to Alanine | – | – | – | – | – | – | – | – | – | 0.26 | – | –
alpha1-antitrypsin: more elastase-specific serpin | – | – | – | – | – | – | – | – | – | – | did not inhibit cleavage | –
antithrombin III | – | – | – | – | – | – | – | – | – | – | cleavage was prevented; also recorded: able to prevent proteolytic cleavage | –
B1 | – | – | – | – | – | – | – | – | – | 0.214 | – | –
